Experimental data: patent US12433872B2, “Treatment of Acanthamoeba or Balamuthia trophozoites and/or cysts” (GEORGIA STATE UNIVERSITY RESEARCH FOUNDATION, INC., priority 2018, dated 2025)
Where two headings read alike, the source gives them in different places.

Assays:
Type in all cases: cell-based
[1] = tested on: Acanthamoeba healyi cysts; experiment: Encystation drug susceptibility / excystation viability assay, 30 day recovery, A. healyi cysts; conditions: 720 h, read-out: A. healyi 30 day MCC
Protocol: (§1) The trophozoites of Acanthamoeba were harvested by mechanical detachment and collected via centrifugation at 4000 rpm at 4° C. for 5 minutes. The trophozoites were washed in 10 mL of Neff's Encystment Media (NEM). NEM composition is 20 mM Tris-HCL [pH 8.8] (2.43 g/L), 100 mM KCL (7.46 g/L), 8 mM MgSO4 (962.96 mg/L), 0.4 mM CaCL2 58.81 mg/L) and 1 mM NaHCO3 (84.01 mg/L) (Neff et al. 1964). All reagents were bought from Sigma Aldrich. Centrifugation of the trophozoites was repeated to ensure any residual growth medium was removed. The pellet was resuspended in a final volume of 15 mL of NEM, cultured in 75 cm^2 corning tissue culture flasks and incubated vertically in a thermal shaker, shaken at 100 rpm at 37° C. for 72 hours to produce fully matured cysts. NEM was supplemented with 250 μg of penicillin/streptomycin. Fresh cysts were produced each time for any experimentation.
(§2) At 72 hours the cysts were harvested using a cell scraper and collected via centrifugation at 4000 rpm at 25° C. for 10 minutes. The cells were washed twice in 10 mL of HyClone™ water, Molecular Biology Grade, and centrifugation was repeated to ensure the removal of any residual NEM. The cell suspension was washed with 0.5% sodium dodecyl sulphate (SDS) to remove any remaining trophozoites and immature cysts. The fully mature cysts were further washed twice with 10 mL of HyClone™ water and 1% NEM, centrifugation was repeated to remove any residue of SDS. The concentration of mature cysts was determined using a haemocytometer and adjusted to 1×10^4 cysts/mL in NEM.
(§3) All test compounds were prepared as 5 mg/mL stock solutions in dimethylsulfoxide (DMSO). All compounds were diluted in NEM, serially diluted in 2-fold dilutions 6 or 11 times, yielding a screening concentration range of 1.56 μg/mL to 50 μg/mL or 48 ng/mL to 50 μg/mL with a final highest screening concentration of 1% DMSO.
(§4) Based on this, a strain specific test period and also a 30 day non-specific recovery time were considered. For the 30 day recovery period, the media was changed 5 times to ensure the contents of wells dis not evaporate and have an effect within the results of the assay.
(§5) 90 μL of 1×10^4 Cysts/ml and 10 μL of experimental compounds from the screening plates were produced according to the protocols above and combined into a Corning clear 96 well treated tissue culture plate. Control wells include cysts in non-drug treated, 1% DMSO, NEM (to be used for negative growth control), NEM Blank, PG blank and cysts in non-drug treated, 1% DMSO, PG (to excyst cells and to be used for positive growth control). The total well volume for all wells was 100 μL. The drug exposed plates were screened at 27° C. for 6 or 24 hours only. At the exposure time point the plates were centrifuged at 4000 rpm at 25° C. for 10 minutes and washed twice with phosphate-buffered saline (PBS) to remove any residual experimental compound.
(§6) Once the plate(s) underwent the Encystation drug susceptibility process, all wells except the negative growth control and NEM blank wells received PG growth medium. All plates were left to recover at 27° C. for the strain specific time period of 5, 9 or 11 days depending on the species of Acanthamoeba. At each of the strain specific time points the plates were removed from incubation and microscopically analysed (qualitatively) for the excystation process for the emergence of excysted viable trophozoites or residual cysts. The presence of excysted trophozoites indicated viable amoebae (non-cystistatic or cysticidal—no effect) and the absence of excystation was considered as cystistatic/cysticidal effects.

[2] = tested on: Acanthamoeba castellanii trophozoites; experiment: Activity against Acanthamoeba castellanii trophozoites
Protocol: Two Acanthamoeba species (Acanthamoeba castellanii—ATCC50370 and Acanthamoeba culbertsoni—ATCC30171) were bought from the American Type Culture Collection (ATCC) and one species (Acanthamoeba healyi) was donated from the Centers for Disease Control and Prevention (CDC) for our experimentations. Trophozoites were thawed and grown in 10 mL of a nutrient rich Peptose-Glucose (PG) media. The PG media composition is 83.26 mM Glucose (15 g/L), Protease Peptone (15 g/L, yeast extract is manufactured under controlled conditions to retain its vitamin content and other nutritive values such as free amino acids, no other composition information given), 2.2 mM KH2PO4 (300 mg/L), 2.97 μM Thiamine (1 mg/L), 99.86 μM L-methionine (14.9 mg/L), 4.6 μM Vitamin B12 (83.3 μl of 0.1 mg/mL stock/L) and 68 μM Biotin (83.3 μl of 0.2 mg/mL stock/L). […] One mL/L of the salt solution was added to the media stock prior to autoclaving. All reagents were purchased from Sigma Aldrich except the Glucose which was purchased from Alfa Aesar. The cell pellet was resuspended in a final volume of 10 mL of PG media, cultured in 75 cm^2 coming tissue culture flasks and incubated at 27° C. PG was supplemented with 125 μg of penicillin/streptomycin. Sub-culturing occurred twice per week to allow the continued growth and development of the Acanthamoeba trophozoites. […]

[3] = tested on: Balamuthia mandrillaris trophozoites; experiment: Activity against Balamuthia mandrillaris trophozoites; conditions: Balamuthia mandrillaris, read-out: Balamuthia mandrillaris IC50
Protocol: Balamuthia mandrillaris trophozoites were thawed and grown in 10 ml of BM-3 medium. […] After autoclaving, complete BM-3 media was produced by the addition of 10% fetal bovine serum and 125 μg of penicillin/streptomycin antibiotics. The table describes all of the compounds and the activity against Balamuthia trophozoites compared to the activity for select Acanthamoeba trophozoites shown in Table 5.

A549 cells = experiment: Toxicity to human A549 cells
[4] = tested on: Acanthamoeba castellanii (ATCC50370) cysts; experiment: Encystation drug susceptibility / excystation viability assay, 30 day recovery, A. castellanii cysts; conditions: ATCC50370, 720 h, read-out: A. castellanii 30 day MCC
Protocol: as §1, §2, §3, §4, §5, §6

[5] = tested on: Acanthamoeba culbertsoni (ATCC30171) cysts; experiment: Encystation drug susceptibility / excystation viability assay, 30 day recovery, A. culbertsoni cysts; conditions: ATCC30171, 720 h, read-out: A. culbertsoni 30 day MCC
Protocol: as §1, §2, §3, §4, §5, §6

[6] = read-out: A. cactellanii Trophozoite IC50
[7] = read-out: Acanthamoeba castellanii IC50
[8] = Homo sapiens, A549, read-out: A549 cell IC50
[9] = minimum cysticidal concentration, no recovery up to 30 days
[10] = trophozoites, n = 2, Table 6, read-out: Acanthamoeba castellanii IC50
[11] = human A549 cells, read-out: A549 cell IC50

IC50 [2, 10]	IC50 ([3]; trophozoites, n = 2)	SMILES	MCC [1, 9]	IC50 (A549 cells; [11])	MCC [4, 9]	MCC [5, 9]	also measured
		CC(C)NC(=N)c1ccc2nc(-c3cc(F)c(Oc4ccc(-c5nc6ccc(C(=N)NC(C)C)cc6[nH]5)c(F)c4)c(F)c3)[nH]c2c1 [Compound C, 2-(3,5-Difluoro-4-(3-fluoro-4-(6-(N-isopropylcarbamimidoyl)-1H-benzo[d]imidazol-2-yl)phenoxy)phenyl)-N-isopropyl-1H-benzo[d]imidazole-6-carboximidamide]					MCC [1]: 23.1 µM; IC50 [2, 6]: 1220 nM; IC50 [2, 7]: 1220 nM; IC50 [3]: 490 nM; IC50 (A549 cells; [8]): 34800 nM; MCC [4]: 23.1 µM; MCC [5]: 11.6 µM
		CC(C)NC(=N)c1ccc2nc(-c3cc(F)c(Oc4ccc(-c5nc6ccc(C(=N)NC(C)C)cc6[nH]5)c(Br)c4)c(F)c3)[nH]c2c1 [Compound F, 2-(2-Bromo-4-(2,6-difluoro-4-(6-(N-isopropylcarbamimidoyl)-1H-benzo[d]imidazol-2-yl)phenoxy)phenyl)-N-isopropyl-1H-benzo[d]imidazole-6-carboximidamide]					MCC [1]: 3.52 µM; IC50 [2, 6]: 590 nM; IC50 [2, 7]: 590 nM; IC50 [3]: 590 nM; IC50 (A549 cells; [8]): 13700 nM; MCC [4]: 5.29 µM; MCC [5]: 5.29 µM
		CC(C)NC(=N)c1ccc2nc(-c3ccc(Oc4ccc(-c5nc6ccc(C(=N)NC(C)C)cc6[nH]5)c(Br)c4)cc3F)[nH]c2c1 [Compound E, 2-(2-Bromo-4-(3-fluoro-4-(6-(N-isopropylcarbamimidoyl)-1H-benzo[d]imidazol-2-yl)phenoxy)phenyl)-N-isopropyl-1H-benzo[d]imidazole-6-carboximidamide]					MCC [1]: 1.83 µM; IC50 [2, 6]: 220 nM; IC50 [2, 7]: 770 nM; IC50 [3]: 110 nM; IC50 (A549 cells; [8]): 3790 nM; MCC [4]: 2.75 µM; MCC [5]: 1.83 µM
480 nM	230 nM	COc1ccc(-c2nc3ccc(-c4nc5ccc(C(=N)C6=NCCCN6)cc5[nH]4)cc3[nH]2)cc1O [AN, 5-(6-(imino(1,4,5,6-tetrahydropyrimidin-2-yl)methyl)-1H,3′H-[2,5′-bibenzo[d]imidazol]-2′-yl)-2-methoxyphenol]					
2010 nM	660 nM	COc1ccc(-c2nc3ccc(-c4nc5ccc(C6=NCC(C)(C)CN6)cc5[nH]4)cc3[nH]2)cc1O [Compound AR, 5-(6-(5,5-dimethyl-1,4,5,6-tetrahydropyrimidin-2-yl)-1H,3′H-[2,5′-bibenzo[d]imidazol]-2′-yl)-2-methoxyphenol]					
950 nM	90 nM	CC(C)NC(=N)c1ccc2nc(-c3ccc(Oc4ccc(-c5nc6ccc(C(=N)NC(C)C)cc6[nH]5)c(F)c4)c(C#N)c3)[nH]c2c1 [Y, 2-(3-Cyano-4-(3-fluoro-4-(6-(N-isopropylcarbamimidoyl)-1H-benzo[d]imidazol-2-yl)phenoxy)phenyl)-N-isopropyl-1H-benzo[d]imidazole-6-carboximidamide]					
370 nM	680 nM	N=C(N)c1ccc(-c2ccc(C(=O)Nc3cccc(C(=N)N)c3)cc2)cc1 [Compound AV]					
2990 nM	100 nM	N=C(NC1CCCC1)c1ccc2nc(-c3ccc(Oc4ccc(-c5nc6ccc(C(=N)NC7CCCC7)cc6[nH]5)cc4)cc3)[nH]c2c1 [BB]					
750 nM	130 nM	CC(C)NC(=N)c1ccc2nc(-c3ccc(Oc4ccc(-c5nc6ccc(C(=N)NC(C)C)cc6[nH]5)c(F)c4)c(Br)c3)[nH]c2c1 [Compound AF, 2-(3-Bromo-4-(3-fluoro-4-(6-(N-isopropylcarbamimidoyl)-1H-benzo[d]imidazol-2-yl)phenoxy)phenyl)-N-isopropyl-1H-benzo[d]imidazole-6-carboximidamide]					
310 nM	50 nM	CC(C)NC(=N)c1ccc2nc(-c3ccc(Oc4ccc(-c5nc6ccc(C(=N)NC(C)C)cc6[nH]5)c(Cl)c4)cc3)[nH]c2c1 [Compound AG]					

SMILES	IC50 [2, 10]	IC50 ([3]; trophozoites, n = 2)	MCC [1, 9]	IC50 (A549 cells; [11])	MCC [4, 9]	MCC [5, 9]	also measured
CC(C)NC(=N)c1ccc2nc(-c3ccc(Oc4ccc(-c5nc6ccc(C(=N)NC(C)C)cc6[nH]5)c(Br)c4)c(F)c3)[nH]c2c1 [Q, 2-(2-Bromo-4-(2-fluoro-4-(6-(N-isopropylcarbamimidoyl)-1H-benzo[d]imidazol-2-yl)phenoxy)phenyl)-N-isopropyl-1H-benzo[d]imidazole-6-carboximidamide]	410 nM	100 nM	3.6 µM	3510 nM	3.6 µM	2.7 µM	
CCC(CC)NC(=N)c1ccc2nc(-c3ccc(Oc4ccc(-c5nc6ccc(C(=N)NC(CC)CC)cc6[nH]5)cc4)cc3)[nH]c2c1 [Compound T]	1130 nM	140 nM	7.61 µM	31400 nM	11.4 µM	5.71 µM	
CC(C)NC(=N)c1ccc2nc(-c3ccc(Oc4ccc(-c5nc6ccc(C(=N)NC(C)C)cc6[nH]5)cc4Br)cc3)[nH]c2c1 [O, 2-(3-Bromo-4-(4-(6-(N-isopropylcarbamimidoyl)-1H-benzo[d]imidazol-2-yl)phenoxy)phenyl)-N-isopropyl-1H-benzo[d]imidazole-6-carboximidamide]	670 nM	130 nM	11.4 µM	3710 nM	11.4 µM	11.4 µM	
COc1cc(Oc2ccc(-c3nc4ccc(C(=N)NC(C)C)cc4[nH]3)c(Cl)c2)ccc1-c1nc2ccc(C(=N)NC(C)C)cc2[nH]1 [Compound S]	2790 nM	60 nM	1.87 µM	2950 nM	2.81 µM	0.93 µM	
CC(C)NC(=N)c1ccc2nc(-c3ccc(Oc4ccc(-c5nc6ccc(C(=N)NC(C)C)cc6[nH]5)cc4Cl)c(Cl)c3)[nH]c2c1 [P, 2,2′-(Oxybis(3-chloro-4,1-phenylene))bis(N-isopropyl-1H-benzo[d]imidazole-6-carboximidamide)]	810 nM	180 nM	9.99 µM	4910 nM	18 µM	20 µM	
